Experimental data: PMC10003010, “A Unique In Vitro Assay to Investigate ABCB4 Transport Function” (International Journal of Molecular Sciences, 2023)
“Also recorded” adds a separate entry of the source. Read-outs that look alike come from different tables or passages of the source.

Legend:
human ABCB4 [1] = biological target: T1, human ABCB4 (Homo sapiens, UniProt P21439); experiment: Inhibition of ABCB4-mediated digoxin transport, bidirectional assay in Abcb1KO-MDCKII-ABCB4 cells; type: cell-based
T1 construct: expressed in transfected cells; host or cells: Abcb1KO-MDCKII (canine kidney, Abcb1 knockout), lentiviral transduction, single clone
T1 sequence (P21439 1-1279 isoform P21439-2): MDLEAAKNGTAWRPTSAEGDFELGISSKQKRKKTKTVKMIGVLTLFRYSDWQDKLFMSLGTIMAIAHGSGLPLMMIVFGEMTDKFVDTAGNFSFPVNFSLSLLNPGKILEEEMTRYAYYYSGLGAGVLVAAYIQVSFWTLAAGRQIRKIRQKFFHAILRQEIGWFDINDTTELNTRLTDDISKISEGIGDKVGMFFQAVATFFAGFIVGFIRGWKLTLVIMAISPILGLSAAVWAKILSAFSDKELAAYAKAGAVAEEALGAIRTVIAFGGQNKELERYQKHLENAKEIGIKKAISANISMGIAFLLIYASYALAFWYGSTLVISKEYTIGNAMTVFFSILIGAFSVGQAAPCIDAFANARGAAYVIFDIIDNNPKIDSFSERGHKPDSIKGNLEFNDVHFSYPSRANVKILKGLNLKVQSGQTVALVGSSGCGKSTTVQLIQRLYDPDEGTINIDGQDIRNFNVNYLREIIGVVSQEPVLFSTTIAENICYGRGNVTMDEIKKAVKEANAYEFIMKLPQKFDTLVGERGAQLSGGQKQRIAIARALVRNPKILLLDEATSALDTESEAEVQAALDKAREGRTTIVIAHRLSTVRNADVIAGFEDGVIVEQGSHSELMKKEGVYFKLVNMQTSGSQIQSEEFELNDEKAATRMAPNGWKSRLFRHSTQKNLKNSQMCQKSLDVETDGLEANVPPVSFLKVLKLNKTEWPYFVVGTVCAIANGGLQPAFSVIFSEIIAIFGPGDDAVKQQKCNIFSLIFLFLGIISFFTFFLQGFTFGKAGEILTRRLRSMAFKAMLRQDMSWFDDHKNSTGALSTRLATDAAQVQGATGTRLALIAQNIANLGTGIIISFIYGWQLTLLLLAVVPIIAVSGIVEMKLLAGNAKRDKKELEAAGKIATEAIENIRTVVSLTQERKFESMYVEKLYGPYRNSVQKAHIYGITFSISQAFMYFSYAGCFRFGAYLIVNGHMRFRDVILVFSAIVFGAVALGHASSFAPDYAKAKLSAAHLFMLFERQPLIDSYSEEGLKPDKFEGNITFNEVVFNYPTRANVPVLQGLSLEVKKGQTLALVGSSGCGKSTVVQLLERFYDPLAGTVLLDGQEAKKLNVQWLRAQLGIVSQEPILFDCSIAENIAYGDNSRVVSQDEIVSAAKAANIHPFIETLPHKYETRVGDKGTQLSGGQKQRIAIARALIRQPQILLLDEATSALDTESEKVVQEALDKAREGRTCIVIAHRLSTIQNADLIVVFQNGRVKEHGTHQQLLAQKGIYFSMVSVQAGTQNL

ABCB4 [2] = conditions: read-out: In Vitro Literature Data (IC50), cited from earlier work
[3] = ref FDA Liver Toxicity Knowledge Base (LTKB); cited from earlier work
human ABCB4 [4] = biological target: T1, human ABCB4; experiment: Bidirectional transport (efflux ratio) in Abcb1KO-MDCKII-ABCB4 cells, substrate test; type: in vitro ADME; conditions: for ABCB4 substrate status, in words: bidirectional transport, ER cut-off 2
ABCB1 = ABCB1 (Homo sapiens, UniProt P08183); conditions: Y/N; cited from earlier work
Sequence of ABCB1 (P08183 whole entry): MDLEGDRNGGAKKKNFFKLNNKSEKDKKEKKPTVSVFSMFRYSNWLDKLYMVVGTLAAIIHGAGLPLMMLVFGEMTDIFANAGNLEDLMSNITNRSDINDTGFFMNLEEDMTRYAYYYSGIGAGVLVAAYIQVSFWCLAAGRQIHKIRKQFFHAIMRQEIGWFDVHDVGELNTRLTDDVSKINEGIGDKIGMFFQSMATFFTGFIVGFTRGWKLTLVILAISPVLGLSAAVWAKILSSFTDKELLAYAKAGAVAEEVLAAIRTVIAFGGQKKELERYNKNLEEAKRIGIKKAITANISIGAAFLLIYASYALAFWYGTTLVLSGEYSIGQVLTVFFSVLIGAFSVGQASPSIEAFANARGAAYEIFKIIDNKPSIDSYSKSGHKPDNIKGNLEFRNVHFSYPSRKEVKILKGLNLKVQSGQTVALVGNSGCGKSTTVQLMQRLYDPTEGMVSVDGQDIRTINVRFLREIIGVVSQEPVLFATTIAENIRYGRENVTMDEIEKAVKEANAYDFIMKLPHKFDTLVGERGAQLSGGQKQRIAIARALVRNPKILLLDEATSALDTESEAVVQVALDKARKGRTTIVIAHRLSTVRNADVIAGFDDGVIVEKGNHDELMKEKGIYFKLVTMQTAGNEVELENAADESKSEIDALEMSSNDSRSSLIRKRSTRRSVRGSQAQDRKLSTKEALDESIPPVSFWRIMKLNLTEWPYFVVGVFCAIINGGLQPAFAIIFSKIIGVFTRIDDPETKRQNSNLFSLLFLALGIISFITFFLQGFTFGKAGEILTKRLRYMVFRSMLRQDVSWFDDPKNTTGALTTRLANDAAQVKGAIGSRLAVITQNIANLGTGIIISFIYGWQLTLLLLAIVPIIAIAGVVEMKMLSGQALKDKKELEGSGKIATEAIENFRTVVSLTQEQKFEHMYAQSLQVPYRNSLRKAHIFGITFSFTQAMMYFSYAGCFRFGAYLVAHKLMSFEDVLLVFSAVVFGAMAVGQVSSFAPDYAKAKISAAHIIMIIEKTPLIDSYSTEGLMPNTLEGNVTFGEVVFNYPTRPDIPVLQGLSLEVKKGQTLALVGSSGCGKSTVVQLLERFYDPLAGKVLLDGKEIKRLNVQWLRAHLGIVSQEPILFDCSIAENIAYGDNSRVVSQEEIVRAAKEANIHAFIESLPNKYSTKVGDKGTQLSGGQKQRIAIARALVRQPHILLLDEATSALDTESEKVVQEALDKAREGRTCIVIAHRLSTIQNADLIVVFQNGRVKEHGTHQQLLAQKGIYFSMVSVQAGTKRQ

ABCB4 [5] = conditions: cited from earlier work; for In Vitro Literature Data, inhibitor (IC50 value was not determined): digoxin transport in ABCB4-transfected LLC-PK1 cells
ABCB4 [6] = conditions: cited from earlier work; for IC50: read-out: In Vitro Literature Data (IC50)
canine Abcb1 [7] = biological target: T2, canine Abcb1 (Canis lupus familiaris, UniProt C0KKU9); set-up: To confirm the impact of endogenous canine Abcb1 on the efflux ratio (ER); host or cells: MDCKII parental (wildtype) cells; method as in PMID 31266750; conditions: previous study; cited from earlier work
T2 sequence (C0KKU9 1-1281): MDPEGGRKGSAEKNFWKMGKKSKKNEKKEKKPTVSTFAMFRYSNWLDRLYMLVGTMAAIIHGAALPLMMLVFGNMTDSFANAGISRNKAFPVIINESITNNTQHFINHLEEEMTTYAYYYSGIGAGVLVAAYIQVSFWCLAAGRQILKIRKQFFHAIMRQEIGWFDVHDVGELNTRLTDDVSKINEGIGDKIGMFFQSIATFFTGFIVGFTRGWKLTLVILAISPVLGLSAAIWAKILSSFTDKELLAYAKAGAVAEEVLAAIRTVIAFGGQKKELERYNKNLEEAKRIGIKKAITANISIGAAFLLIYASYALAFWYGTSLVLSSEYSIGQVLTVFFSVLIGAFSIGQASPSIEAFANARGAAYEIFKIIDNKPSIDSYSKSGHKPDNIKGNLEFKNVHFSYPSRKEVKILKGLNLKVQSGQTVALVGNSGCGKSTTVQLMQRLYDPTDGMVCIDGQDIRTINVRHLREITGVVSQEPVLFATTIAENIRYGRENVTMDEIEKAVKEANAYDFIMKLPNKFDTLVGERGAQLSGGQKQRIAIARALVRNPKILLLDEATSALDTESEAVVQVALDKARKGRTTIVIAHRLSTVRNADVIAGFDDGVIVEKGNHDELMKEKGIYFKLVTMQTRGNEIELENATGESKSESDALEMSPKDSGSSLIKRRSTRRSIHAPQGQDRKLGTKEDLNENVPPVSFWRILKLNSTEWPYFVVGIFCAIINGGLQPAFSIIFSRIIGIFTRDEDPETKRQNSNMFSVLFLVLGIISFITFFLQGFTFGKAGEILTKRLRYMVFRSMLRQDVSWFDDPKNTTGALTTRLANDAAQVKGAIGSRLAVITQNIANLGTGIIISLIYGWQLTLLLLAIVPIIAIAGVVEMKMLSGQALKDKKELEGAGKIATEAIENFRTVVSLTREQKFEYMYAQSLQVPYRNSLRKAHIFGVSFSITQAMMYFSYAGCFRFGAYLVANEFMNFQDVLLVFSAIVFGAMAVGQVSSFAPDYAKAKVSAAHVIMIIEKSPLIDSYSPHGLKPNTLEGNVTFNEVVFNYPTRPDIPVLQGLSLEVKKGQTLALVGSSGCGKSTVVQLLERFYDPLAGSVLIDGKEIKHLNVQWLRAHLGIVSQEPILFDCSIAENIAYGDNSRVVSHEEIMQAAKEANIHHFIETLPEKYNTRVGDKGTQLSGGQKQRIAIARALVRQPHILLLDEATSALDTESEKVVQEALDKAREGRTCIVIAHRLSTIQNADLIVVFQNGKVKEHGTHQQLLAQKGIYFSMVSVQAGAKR

canine Abcb1 [8] = biological target: T2, canine Abcb1; experiment: in vitro; conditions: dog, MDCK, pH 7.4
[9] = digoxin 1 µM probe, ABCB4 cell monolayers, samples at 3 h, read-out: IC50 (µM), Based on Digoxin ER
[10] = primary hepatocyte assay, labeled PC

Compound | DILI Concern [3] | IC50 (human ABCB4 [1]; [9]) | Effect on ABCB4-mediated digoxin transport, in words (human ABCB4 [1]; digoxin 1 µM probe) | also measured
OC(Cn1cncn1)(Cn1cncn1)c1ccc(F)cc1F [fluconazole] | Most DILI concern |  |  | IC50 (human ABCB4 [1]): > 3 µM; IC50 (ABCB4 [2]; human primary hepatocyte assay): > 300 µM
CCc1oc2ccccc2c1C(=O)c1cc(Br)c(O)c(Br)c1 [benzbromarone] | Most DILI concern |  |  | IC50 (human ABCB4 [1]): 19.9 µM; IC50 (ABCB4 [2]; human primary hepatocyte assay): 0.4 µM
COc1cc2nc(N3CCN(C(=O)c4ccco4)CC3)nc(N)c2cc1OC [prazosin] |  | 16.1 µM |  | ABCB4 substrate status, in words (human ABCB4 [4]): minor ABCB4-mediated directional transport
C=C[C@@H]1C[C@]1(NC(=O)[C@@H]1C[C@@H](Oc2ncc(OC)c3ccc(Cl)cc23)CN1C(=O)[C@@H](NC(=O)OC(C)(C)C)C(C)(C)C)C(=O)NS(=O)(=O)C1CC1 [asunaprevir] |  |  | ABCB4 inhibitors | 
NC(=O)N1c2ccccc2C=Cc2ccccc21 [carbamazepine] | Most DILI concern | > 80 µM |  | IC50 (ABCB4 [2]; human primary hepatocyte assay): > 300 µM; ABCB1 Interactor (ABCB1): Conflicting information [50]
COc1cc2c(cc1OC)CN(CCc1ccc(NC(=O)c3cccc4c(=O)c5cccc(OC)c5[nH]c34)cc1)CC2 [elacridar] |  | 0.15 µM | strong concentration-dependent inhibitory effect | 
CCC(C)n1ncn(-c2ccc(N3CCN(c4ccc(OCC5COC(Cn6cncn6)(c6ccc(Cl)cc6Cl)O5)cc4)CC3)cc2)c1=O (stereo not drawn) [itraconazole] | Most DILI concern | 0.17 µM |  | Effect on ABCB4-mediated transport of gefitinib (human ABCB4 [4]; itraconazole 2 µM, gefitinib 0.5 µM): inhibited; IC50 (ABCB4 [2]; [10]): 2.1 µM; In Vitro Literature Data, % inhibition at 10 µM (ABCB4 [5]; 10 µM, LLC-PK1-ABCB4 cells): 30%; In Vitro Literature Data, % inhibition at 1 µM (ABCB4 [6]; 1 µM): 50%; IC50 (ABCB4 [6]): 22.5 µM
COc1ccnc(C[S+]([O-])c2nc3ccc(OC(F)F)cc3[nH]2)c1OC (stereo not drawn) [pantoprazole] | Less DILI concern | > 10 µM | no interaction | 
CC(=O)Oc1ccccc1C(=O)O [acetylsalicylic acid] | No DILI concern | > 100 µM | no effect | IC50 (ABCB4 [2]; human primary hepatocyte assay): > 300 µM
CC(C)(C)NC(=O)[C@@H]1C[C@@H]2CCCC[C@@H]2CN1C[C@@H](O)[C@H](Cc1ccccc1)NC(=O)[C@H](CC(N)=O)NC(=O)c1ccc2ccccc2n1 [saquinavir] | Less DILI concern | 1.4 µM |  | 
C#Cc1cccc(Nc2ncnc3cc(OCCOC)c(OCCOC)cc23)c1 [erlotinib] | Most DILI concern | > 5 µM |  | 
CCOC(=O)C1=C(C)NC(C)=C(C(=O)OC)C1c1cccc(Cl)c1Cl (stereo not drawn) [felodipine] |  | > 30 µM | no interaction | 
CN(Cc1cnc2nc(N)nc(N)c2n1)c1ccc(C(=O)N[C@@H](CCC(=O)O)C(=O)O)cc1 [methotrexate] | Most DILI concern | > 10 µM | did not detect interaction; also recorded: did not show inhibition | IC50 (ABCB4 [2]; human primary hepatocyte assay): 3.1 µM
COc1ccc([C@@H]2Sc3ccccc3N(CCN(C)C)C(=O)[C@@H]2OC(C)=O)cc1 [diltiazem] |  | 48.6 µM |  | 
CNC(=O)c1cc(Oc2ccc(NC(=O)Nc3ccc(Cl)c(C(F)(F)F)c3)cc2)ccn1 [sorafenib] | Most DILI concern | 4.42 µM |  | 
C=C[C@H]1C[N@@]2CC[C@H]1C[C@@H]2[C@@H](O)c1ccnc2ccc(OC)cc12 [quinidine] |  | 1.09 µM |  | efflux ratio at 1 µM (human ABCB4 [4]; human, pH 7.4, 1 µM, ABCB4 cells, read-out: Efflux ratio (ER)): < 2
C/C=C/C[C@@H](C)C(=O)[C@H]1C(=O)N[C@@H](C(C)C)C(=O)N(C)CC(=O)N(C)[C@@H](CC(C)C)C(=O)N[C@@H](C(C)C)C(=O)N(C)[C@@H](CC(C)C)C(=O)N[C@@H](C)C(=O)N[C@H](C)C(=O)N(C)[C@@H](CC(C)C)C(=O)N(C)[C@@H](CC(C)C)C(=O)N(C)[C@@H](C(C)C)C(=O)N1C [valspodar] |  |  | potent ABCB4 inhibitor | IC50 (human ABCB4 [1]): 0.15 µM; In Vitro Literature Data, inhibitor (IC50 value was not determined) (ABCB4 [5]): Inhibitor ^d [16]

Compound | DILI Concern [3] | IC50 (human ABCB4 [1]; [9]) | Effect on ABCB4-mediated digoxin transport, in words (human ABCB4 [1]; digoxin 1 µM probe) | also measured
CCOC(=O)C1=C(COCCN)NC(C)=C(C(=O)OC)C1c1ccccc1Cl (stereo not drawn) [amlodipine] |  | 17.9 µM | weak interaction | 
CC(C)OC(=O)C(C)(C)Oc1ccc(C(=O)c2ccc(Cl)cc2)cc1 [fenofibrate] |  | > 20 µM | no interaction | 
Nc1cc(N2CCCCC2)nc(N)[n+]1[O-] [minoxidil] |  | > 20 µM | no effect | IC50 (ABCB4 [2]; human primary hepatocyte assay): > 300 µM
Cc1cccc(C)c1OCC(=O)N[C@@H](Cc1ccccc1)[C@@H](O)C[C@H](Cc1ccccc1)NC(=O)[C@H](C(C)C)N1CCCNC1=O [lopinavir] |  | 0.6 µM | ABCB4 inhibitors | 
maraviroc |  |  |  | Affinity for endogenous canine Abcb1 in MDCKII cell lines, in words (canine Abcb1 [7]): strong affinity
COc1ccccc1OCCNCC(O)COc1cccc2[nH]c3ccccc3c12 (stereo not drawn) [carvedilol] | Less DILI concern | 0.7 µM |  | 
CC[C@H]1OC(=O)[C@H](C)[C@@H](O[C@H]2C[C@@](C)(OC)[C@@H](O)[C@H](C)O2)[C@H](C)[C@@H](O[C@@H]2O[C@H](C)C[C@H](N(C)C)[C@H]2O)[C@](C)(OC)C[C@@H](C)C(=O)[C@H](C)[C@@H](O)[C@]1(C)O [clarithromycin] | Most DILI concern | > 80 µM |  | 
C[C@H]1O[C@@H](O[C@H]2[C@@H](O)C[C@H](O[C@H]3[C@@H](O)C[C@H](O[C@H]4CC[C@@]5(C)[C@H](CC[C@@H]6[C@@H]5C[C@@H](O)[C@]5(C)[C@@H](C7=CC(=O)OC7)CC[C@]65O)C4)O[C@@H]3C)O[C@@H]2C)C[C@H](O)[C@@H]1O [digoxin] |  |  |  | ABCB4 substrate status, in words (human ABCB4 [4]): shared substrate for ABCB1 and ABCB4; efflux ratio at 1 µM (canine Abcb1 [8]): 4.74 ± 0.15
COCC(=O)O[C@]1(CCN(C)CCCc2nc3ccccc3[nH]2)CCc2cc(F)ccc2[C@@H]1C(C)C [mibefradil] |  | 0.4 µM | strong concentration-dependent inhibitory effect | 
CC(C)CN(C[C@@H](O)[C@H](Cc1ccccc1)NC(=O)O[C@H]1CO[C@H]2OCC[C@H]21)S(=O)(=O)c1ccc(N)cc1 [darunavir] |  | > 10 µM | ABCB4 inhibitors | inhibition at 10 µM (human ABCB4 [1]; read-out: % inhibition of ABCB4-mediated digoxin transport at 10 µM, 10 µM test drug, digoxin 1 µM): 60%
CCCCc1oc2ccccc2c1C(=O)c1cc(I)c(OCCN(CC)CC)c(I)c1 [amiodarone] |  | > 10 µM |  | 
CC(C)c1nc(CN(C)C(=O)N[C@H](C(=O)N[C@@H](Cc2ccccc2)C[C@H](O)[C@H](Cc2ccccc2)NC(=O)OCc2cncs2)C(C)C)cs1 [ritonavir] | Most DILI concern |  |  | IC50 (ABCB4 [2]; human primary hepatocyte assay): […]; IC50 (ABCB4 [2]; [10]): […]
COc1ccc(CCN(C)CCCC(C#N)(c2ccc(OC)c(OC)c2)C(C)C)cc1OC (stereo not drawn) [verapamil] |  |  |  | In Vitro Literature Data, inhibitor (IC50 value was not determined) (ABCB4 [5]): inhibitor
CC[C@H](Nc1ncnc2[nH]cnc12)c1nc2cccc(F)c2c(=O)n1-c1ccccc1 [idelalisib] |  | > 5 µM | did not inhibit ABCB4 | 
O[C@@H](COc1cccc2ncccc12)CN1CCN([C@@H]2c3ccccc3[C@@H]3[C@H](c4ccccc42)C3(F)F)CC1 [zosuquidar] |  | 0.07 µM | strong concentration-dependent inhibitory effect | 
CC(=O)N1CCN(c2ccc(OCC3COC(Cn4ccnc4)(c4ccc(Cl)cc4Cl)O3)cc2)CC1 (stereo not drawn) [ketoconazole] | Most DILI concern |  |  | IC50 (human ABCB4 [1]): 0.56 µM; IC50 (ABCB4 [6]): 4.6 µM
ivermectin | Less DILI concern | 0.53 µM | ABCB4 inhibitor | In Vitro Literature Data, substrate (ABCB4 [5]; LLC-PK1-ABCB4 cells): Substrate [16]
